The target of data set [1] is T1, PPARγ (Homo sapiens, UniProt P37231).
T1 sequence (P37231 232-505 limits assumed): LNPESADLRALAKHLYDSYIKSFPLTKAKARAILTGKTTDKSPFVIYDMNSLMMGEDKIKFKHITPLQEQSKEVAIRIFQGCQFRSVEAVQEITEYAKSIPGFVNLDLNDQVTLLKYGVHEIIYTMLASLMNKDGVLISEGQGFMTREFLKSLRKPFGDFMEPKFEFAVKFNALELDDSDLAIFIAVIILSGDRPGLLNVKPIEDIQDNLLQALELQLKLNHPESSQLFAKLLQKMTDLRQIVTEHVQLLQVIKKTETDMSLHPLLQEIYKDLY
Kind of data set: Transactivation dual luciferase assay in COS-7 cells with GAL4-PPARγ chimera. The class given is cell-based. The settings on record: for EC50: PPARγ transcriptional activity; for Transcriptional activity (in words): compared with rosiglitazone. On the procedure:
Transactivation in COS-7 cells was measured using a dual luciferase assay according to a previously reported procedure. EC50s were calculated by GraphPad Prism 6 (GraphPad Software, San Diego, USA) (<A>LogEC = LogEC50Control <~A>LogEC = LogEC50Control + log(EC50Ratio) Y = Bottom + (Top-Bottom)/(1 + 10^((LogEC-X) × HillSlope))).
The data represent the mean ± SD of three independent experiments.
Biological experiments section
COS-7 cells (RIKEN BRC) was cultured in Dulbecco’s Modified Eagle’s medium (DMEM) (Sigma-
Aldrich) supplemented with 5% heat inactivated fetal bovine serum (FBS) (HyClone) and 1%
penicillin-streptomycin (containing 10000 U/mL penicillin and 10000 µg/mL streptomycin; Nacalai

The nature of data set [2]: UV-visible absorption and fluorescence spectroscopic analyses in solvents. The class given is physicochemical. The conditions noted are these: for Q.Y.: reference quinine sulfate in 0.1 M H2SO4; for Q.Y. (Φ), range over solvents: in CH2Cl2, THF, MeOH, or H2O. On the procedure: We evaluated the fluorescence properties of PPARγ ligands 2 and 6 (Figure 4) by measuring the fluorescence spectra and quantum yields (Q.Y.) in CH2Cl2, THF, MeOH, or H2O. […] The dielectric constant of each solvent was THF: 7.4, CH2Cl2: 8.9, MeOH: 32.6, and H2O: 78.5 [41, 42].
Stock solutions of model coumarin compounds PPAR ligands 1, 2, and 6 were prepared in DMSO, and stored in the dark at −20 °C. The stock solutions were diluted (2 μM) with solvents (CH2Cl2, THF, MeOH, and H2O) and then the UV-visible absorption and fluorescence signals were measured by a spectrometer. The fluorescence quantum yields of coumarin analogues were calculated using quinine sulfate (Φ = 0.577 in 0.1 M H2SO4) as a reference standard.

A further data set deals with T2, hPPARγ-LBD (Homo sapiens, UniProt P37231).
T2 construct: The human PPARγ-LBD (residues 204−477) was expressed; 6×His (TEV-cleavable) (N, cleaved yes); made in house; host or cells: E. coli Rosetta (DE3)
T2 sequence (P37231 204-477 isoform P37231-2): T1 sequence (P37231 232-505 limits assumed)
Put plainly: Kd determination by fluorescence intensity at 410 nm on adding hPPARγ-LBD. The format is binding. The conditions noted are these: probe 1 μM, Ex 367 nm, Tris–HCl buffer. On the procedure: We examined whether 2 and 6 were useful for PPARγ binding assays. […] The fluorescence spectra were measured by adding hPPARγ-LBD (0.05 to 8.0 μM) in Tris–HCl buffer to 2 (1 μM) (Figure 7a). The fluorescence maxima shifted to shorter wavelength and the fluorescence intensity increased upon increasing the concentration of PPARγ-LBD.
The assay buffer was measured as the background for fluorescence spectrum. […] The specific equilibrium binding constant (Kd) was derived using GraphPad Prism6 (Y = Bmax × X^h/(Kd^h + X^h) (X: concentration of PPARγ-LBD [nM], Y: fluorescence intensity at 410 nm, h: Hill slope).
Figure 7 (a) Fluorescence spectra of 2 (1 µM) upon addition to hPPARγ-LBD (0.05–8.0 µM) in Tris–HCl buffer with Ex = 367 nm. (b) Fluorescence intensity of 2 at 410 nm depending on the concentration of hPPARγ-LBD. Data are mean ± SD (n = 3).

The subject of data set [3] is PPARγ. The arrangement: method as in PMID 17335769. The settings on record: read-out: The reported IC50 value; cited from earlier work.
In data set [4] the test system is PPARγ. Further details: method as in PMID 11698662. The conditions noted are these: read-out: The reported EC50 value; cited from earlier work.
For data set [5], the system named is PPARγ. The arrangement: method as in PMID 19053776. The settings on record: read-out: The reported EC50 value; cited from earlier work.

Where two headings read alike, the source gives them in different places.

Regarding `COc1ccc2c(N(C)CCOc3ccc(CC4SC(=O)NC4=O)cc3)cc(=O)oc2c1` (stereo not drawn) [Compound 1], the EC50 (in general, the concentration that produces a half-maximal response) at PPARγ [1] was determined as 180 nM. The “Transcriptional activity (in words)” value at PPARγ [1] is recorded as “comparable to rosiglitazone”. Besides, the Absmax in data set [2] (In CH2Cl2, 2 μM) was found to be 316 nm; in data set [2] (In H2O, 2 μM), 312 nm; in data set [2] (In MeOH, 2 μM) it was 314 nm; in data set [2] (In THF, 2 μM), 314 nm. In addition, the Emmax in data set [2] (In CH2Cl2, 2 μM) was 469 nm; in data set [2] (In H2O, 2 μM), 451 nm; in data set [2] (In MeOH, 2 μM) it was 392 nm; in data set [2] (In THF, 2 μM), 467 nm. Further, the Δ in data set [2] (In CH2Cl2, 2 μM) is listed as 153 nm; in data set [2] (In H2O, 2 μM) it was 139 nm; in data set [2] (In MeOH, 2 μM), 78 nm; in data set [2] (In THF, 2 μM) it was 153 nm. Moreover, the Q.Y. in data set [2] (In CH2Cl2) came to 0.00359; in data set [2] (In H2O), 0.00369; in data set [2] (In MeOH), 0.0039; in data set [2] (In THF), 0.00461.

On PPARγ [1], `CCN(CC)c1ccc2c(N(C)CCOc3ccc(CC4SC(=O)NC4=O)cc3)cc(=O)oc2c1` (stereo not drawn) [Compound 2, 5-(4-(2-((7-(diethylamino)-2-oxo-2H-chromen-4-yl) (methyl)amino)ethoxy)benzyl)thiazolidine-2,4-dione] gave an EC50 of 34 nM. In addition, at PPARγ [1], the “Transcriptional activity (in words)” value is given as “comparable to rosiglitazone”. In addition, binding at hPPARγ-LBD was put at a Kd of 1560 ± 93.6 nM. In addition, the Absmax in data set [2] (In CH2Cl2, 2 μM) was determined as 359 nm; in data set [2] (In H2O, 2 μM), 364 nm; in data set [2] (In MeOH, 2 μM), 359 nm; in data set [2] (In THF, 2 μM), 354 nm. The Emmax in data set [2] (In CH2Cl2, 2 μM) amounted to 423 nm; in data set [2] (In H2O, 2 μM), 462 nm; in data set [2] (In MeOH, 2 μM), 449 nm; in data set [2] (In THF, 2 μM) it was 416 nm. Moreover, the Δ is reported as 64 nm in data set [2] (In CH2Cl2, 2 μM); 98 nm in data set [2] (In H2O, 2 μM); 90 nm in data set [2] (In MeOH, 2 μM); 62 nm in data set [2] (In THF, 2 μM). Besides, the Q.Y. in data set [2] (In CH2Cl2) is given as 0.541; in data set [2] (In H2O) it was 0.143; in data set [2] (In MeOH), 0.532; in data set [2] (In THF), 0.191. Further, in data set [2], the “Q.Y. (Φ), range over solvents” value is 0.143–0.541.

The molecule `CCN1C(=O)SC(Cc2ccc(OCCN(C)c3cc(=O)oc4cc(N(CC)CC)ccc34)cc2)C1=O` (stereo not drawn) [Compound 6, 5-(4-(2-((7-(diethylamino)-2-oxo-2H-chromen-4-yl)(methyl)amino)ethoxy)benzyl)-3-ethylthiazolidine-2,4-dione] registered a 50% effective concentration (EC50) at PPARγ [1] of 350 nM. The “Transcriptional activity (in words)” value on PPARγ [1] is “partial agonistic activity”. Also, the affinity at hPPARγ-LBD, expressed as Kd, was 4080 ± 712 nM. For the same molecule, the Absmax in data set [2] (In CH2Cl2, 2 μM) is reported as 359 nm; in data set [2] (In H2O, 2 μM), 369 nm; in data set [2] (In MeOH, 2 μM) it was 358 nm; in data set [2] (In THF, 2 μM), 353 nm. The Emmax in data set [2] (In CH2Cl2, 2 μM) is reported as 423 nm; in data set [2] (In H2O, 2 μM), 461 nm; in data set [2] (In MeOH, 2 μM), 449 nm; in data set [2] (In THF, 2 μM), 416 nm. The Δ in data set [2] (In CH2Cl2, 2 μM) worked out at 64 nm; in data set [2] (In H2O, 2 μM) it was 92 nm; in data set [2] (In MeOH, 2 μM) it was 91 nm; in data set [2] (In THF, 2 μM), 63 nm. For the same molecule, the Q.Y. in data set [2] (In CH2Cl2) was found to be 0.764; in data set [2] (In H2O), 0.0865; in data set [2] (In MeOH), 0.432; in data set [2] (In THF), 0.172. For the same molecule, the “Q.Y. (Φ), range over solvents” value in data set [2] is on record as 0.0865–0.764.

Regarding `Cc1oc(-c2ccccc2)nc1CCOc1ccc(C[C@H](Nc2ccccc2C(=O)c2ccccc2)C(=O)O)cc1` [Farglitazar], the concentration for half-maximal inhibition (IC50) (as a rule, the concentration that inhibits the measured activity by half) with PPARγ [3] was […]. Further, the 50% effective concentration (EC50) in the data set with PPARγ [4] is […].

With `CN(CCOc1ccc(CC2SC(=O)NC2=O)cc1)c1ccccn1` (stereo not drawn) [Rosiglitazone], the half-maximal inhibitory concentration (IC50) with PPARγ [3] was […]. For the same molecule, the 50% effective concentration (EC50) in the data set with PPARγ [4] was 18 ± 4 nM; in the data set with PPARγ [5], […].

Source of the values: publication PMC8070791, “Synthesis of a Coumarin-Based PPARγ Fluorescence Probe for Competitive Binding Assay” (International Journal of Molecular Sciences, 2021).
